Source: article PMC10095932 (Molecules, 2023)
Entries after “also recorded” stand apart in the source; their conditions may differ. Where two headings read alike, the source gives them in different places. Where a SMILES comes first, the peptide text is derived from it. Bridges are numbered along the chain shown (N, C = ends).

Legend:
rat NPR-A = biological target: T1, rat NPR-A (Rattus norvegicus, UniProt P18910); experiment: cGMP ALPHAscreen, cGMP production in PC12 cells; type: cell-based; details: PC12 cells, cGMP ALPHAscreen
T1 construct: endogenous in cells; host or cells: rat PC12 cells
T1 sequence (P18910 29-1057): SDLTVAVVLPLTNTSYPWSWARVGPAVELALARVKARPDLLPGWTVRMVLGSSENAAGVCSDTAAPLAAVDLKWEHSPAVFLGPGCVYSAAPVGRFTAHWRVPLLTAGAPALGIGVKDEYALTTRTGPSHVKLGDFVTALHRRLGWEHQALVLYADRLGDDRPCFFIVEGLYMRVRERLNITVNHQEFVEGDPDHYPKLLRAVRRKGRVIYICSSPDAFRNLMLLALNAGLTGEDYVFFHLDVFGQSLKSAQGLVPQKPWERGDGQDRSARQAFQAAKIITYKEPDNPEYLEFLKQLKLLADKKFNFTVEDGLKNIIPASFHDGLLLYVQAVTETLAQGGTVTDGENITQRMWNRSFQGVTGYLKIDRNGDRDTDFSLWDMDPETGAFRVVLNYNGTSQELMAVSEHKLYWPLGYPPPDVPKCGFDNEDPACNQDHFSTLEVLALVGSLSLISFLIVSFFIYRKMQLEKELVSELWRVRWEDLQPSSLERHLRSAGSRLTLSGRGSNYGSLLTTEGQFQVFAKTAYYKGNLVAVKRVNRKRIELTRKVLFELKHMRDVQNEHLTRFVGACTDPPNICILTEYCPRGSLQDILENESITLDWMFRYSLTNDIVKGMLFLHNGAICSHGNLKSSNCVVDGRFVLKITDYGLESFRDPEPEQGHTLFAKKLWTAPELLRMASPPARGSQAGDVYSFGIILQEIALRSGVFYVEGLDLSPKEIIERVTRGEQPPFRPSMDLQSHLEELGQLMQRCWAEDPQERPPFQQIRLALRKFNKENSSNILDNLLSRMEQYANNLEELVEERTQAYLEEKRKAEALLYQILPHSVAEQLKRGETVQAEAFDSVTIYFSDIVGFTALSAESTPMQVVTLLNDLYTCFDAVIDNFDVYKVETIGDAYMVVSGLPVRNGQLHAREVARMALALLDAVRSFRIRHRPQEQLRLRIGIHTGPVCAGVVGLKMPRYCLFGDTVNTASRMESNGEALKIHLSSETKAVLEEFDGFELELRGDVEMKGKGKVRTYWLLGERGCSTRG
Protocol: NP activity can be determined by the effectiveness of the peptide to elicit cGMP production through NPR-A. The cGMP ALPHAscreen evaluates the ability of peptides to stimulate cGMP production in cells through a non-radioactive, homogenous, proximity assay which encompasses […]. […] In order to evaluate the potency of TNPa-e at rNPR-A, TNPa-e were evaluated using the cGMP ALPHAscreen in rat PC12 cells.
(§1) Cells were cultured at 5% CO2 and 37 °C. HEK 293 cells were cultured in high glucose DMEM (Gibco, Carlsbad, CA, USA) supplemented with 10% FBS, and 1% penicillin/streptomycin. HEK 293 cells were seeded in media lacking penicillin/streptomycin 24 to 48 h pre-transfection. PC12 cells were cultured in high glucose DMEM (Gibco) supplemented with 10% FBS and 1% penicillin/streptomycin.
(§2) The cGMP ALPHAscreen was performed using the ALPHAscreen Protein A detection kit and the biotinylated cGMP supplement (Perkin Elmer, Waltham, MA, USA) with rabbit anti-cGMP polyclonal antibody (Biovision, Mountain View, CA, USA). Cells were detached from the flask and the resulting pellet was resuspended in stimulation buffer (HBSS supplemented with 0.1% w/v BSA and 1 mM IBMX at 37 °C). Cells were added to a white 384-well Optiplate (Perkin Elmer, Waltham, USA) to 30,000 cells per well for HEK 293 cells and 10,000 cells per well for PC12 cells. Cells were incubated with different concentrations of test peptides (concentration range of 1 × 10^−5 to 1 × 10^−11 M in stimulation buffer) at 37 °C for 30 min. Cells were lysed with lysis buffer (1 M HEPES, 0.3% Tween-20, 1% BSA in H2O, pH 7.4). Then 5 μL acceptor-bead mix was added to each well under subdued lighting conditions, followed by 5 μL of donor-bead mix. Plates were incubated for ~12 h, slowly shaking at room temperature. After incubation, the ALPHAscreen signal was measured using an EnVision plate reader (Perkin Elmer). The standard curve consisted of cGMP in a concentration range of 1 × 10^−6 to 1 × 10^−12 M. All data points were acquired in triplicate and were analyzed using GraphPad Prism 5.0 software (GraphPad Software, Inc., San Diego, CA, USA).

human NPR-A = biological target: T2, human NPR-A (Homo sapiens, UniProt P16066); experiment: cGMP ALPHAscreen, cGMP production in HEK 293 cells transiently overexpressing hNPR-A; type: cell-based; details: HEK 293 cells overexpressing hNPR-A
T2 construct: expressed in transfected cells; host or cells: HEK 293 cells, transient, Lipofectamine 2000
T2 sequence (P16066 33-1061): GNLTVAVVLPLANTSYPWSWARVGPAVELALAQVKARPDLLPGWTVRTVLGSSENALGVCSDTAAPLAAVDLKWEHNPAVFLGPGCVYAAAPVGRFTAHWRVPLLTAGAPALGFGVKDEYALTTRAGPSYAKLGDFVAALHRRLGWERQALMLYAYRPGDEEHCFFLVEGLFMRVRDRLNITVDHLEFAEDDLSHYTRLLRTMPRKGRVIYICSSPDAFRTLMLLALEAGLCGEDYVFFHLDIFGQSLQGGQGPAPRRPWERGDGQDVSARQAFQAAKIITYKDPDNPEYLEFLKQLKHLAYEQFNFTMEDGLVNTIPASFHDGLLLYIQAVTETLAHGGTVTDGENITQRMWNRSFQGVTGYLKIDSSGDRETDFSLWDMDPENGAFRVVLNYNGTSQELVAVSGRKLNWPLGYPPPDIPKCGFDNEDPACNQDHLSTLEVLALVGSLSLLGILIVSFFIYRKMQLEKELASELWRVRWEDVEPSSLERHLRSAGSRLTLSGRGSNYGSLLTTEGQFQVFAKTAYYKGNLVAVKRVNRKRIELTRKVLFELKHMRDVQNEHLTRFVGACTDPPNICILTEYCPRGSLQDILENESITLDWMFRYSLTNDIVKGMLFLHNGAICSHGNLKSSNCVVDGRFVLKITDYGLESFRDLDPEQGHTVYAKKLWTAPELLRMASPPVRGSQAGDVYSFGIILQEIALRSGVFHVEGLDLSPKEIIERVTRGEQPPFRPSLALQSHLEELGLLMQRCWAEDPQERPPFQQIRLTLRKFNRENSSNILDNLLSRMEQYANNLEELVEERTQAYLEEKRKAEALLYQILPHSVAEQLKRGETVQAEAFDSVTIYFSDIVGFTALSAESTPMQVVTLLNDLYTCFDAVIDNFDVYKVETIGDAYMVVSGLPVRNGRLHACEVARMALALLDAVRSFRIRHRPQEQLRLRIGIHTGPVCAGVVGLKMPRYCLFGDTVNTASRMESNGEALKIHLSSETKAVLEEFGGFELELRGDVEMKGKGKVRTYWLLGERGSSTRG
Protocol: as §1
HEK 293 cells were transfected using the lipofectamine 2000 transfection protocol (Invitrogen). Cells (95% confluence) were transfected with 45% pcDNA3.1/hNPR-A, 45% pcDNA3.1, and 10% pEGFP-NI to the optimal DNA concentration specified in the protocol. The co-transfection with pEGFP-NI plasmid allowed the determination of the transfection efficiency. This was assessed by the estimation of the number of GFP-expressing cells using an Olympus IX70 inverted fluorescence microscope. Transfected cells were used for assay purposes within 24 h.
as §2

[1] = cited from earlier work
From the text: In humans, the NP system consists primarily of three main peptides, A-type or atrial natriuretic peptide (ANP), B-type or brain natriuretic peptide (BNP), and C-type natriuretic peptide (CNP). Distinct variations in the expression levels of each NP correlates strongly with normal physiological and disease conditions. Due to their importance in cardio-renal diseases these peptides have been extensively studied. Structurally, the NP family is characterized by a 17-residue ring structure with a highly conserved internal sequence and variable N- and C-terminal regions. W ...

[2] = tested on: Neutral endopeptidase 24.11 (NEP); experiment: 500 ng NEP (activity 400 pmol min^−1 μg^−1) in 100 mM Tris.HCl and 150 mM NaCl (pH 7.4); details: 37 °C, up to 24 h

## CC[C@H](C)[C@H](NC(=O)[C@H](CCCCN)NC(=O)[C@H](CO)NC(=O)[C@H](CC(=O)O)NC(=O)[C@@H](N)CO)C(=O)NCC(=O)N[C@@H](CC(=O)O)C(=O)NCC(=O)N[C@H]1CSSC[C@@H](C(=O)N[C@@H](CC(N)=O)C(=O)N[C@@H](CCCNC(=N)N)C(=O)N2CCC[C@H]2C(=O)N[C@H](C(=O)N[C@@H](CCC(N)=O)C(=O)N[C@@H](CC(N)=O)C(=O)N[C@@H](CCCNC(=N)N)C(=O)N2CCC[C@H]2C(=O)N[C@@H](CCCCN)C(=O)N[C@@H](CCC(N)=O)C(=O)N[C@H](C(=O)N2CCC[C@H]2C(=O)NCC(=O)NCC(=O)N[C@@H](CO)C(=O)O)[C@@H](C)CC)C(C)C)NC(=O)CNC(=O)[C@H](CC(C)C)NC(=O)CNC(=O)[C@H](CO)NC(=O)[C@H](C(C)C)NC(=O)[C@H](CO)NC(=O)CNC(=O)[C@H]([C@@H](C)CC)NC(=O)[C@H](Cc2c[nH]cn2)NC(=O)[C@H](CC(=O)O)NC(=O)[C@H](CC(C)C)NC(=O)[C@@H]2CCCN2C(=O)[C@H](CC(C)C)NC(=O)CNC(=O)[C@H](Cc2ccccc2)NC1=O [TNPe] (H-SDSKIGDGCFGLPLDHIGSVSGLGCNRPVQNRPKQIPGGS-OH; disulfide 9-25)
Rat NPR-A; 30 min at 37 °C, three to five separate experiments in triplicate, read-out: rNPR-A EC50 (95% CI), potency to stimulate cGMP production
  EC50: 1.8 µM
Rat NPR-A; read-out: EC50 at rNPR-A
  EC50: > 1 µM
Human NPR-A; HEK293, read-out: cGMP production, % of the maximum response (compared with DNP, hANP, hBNP), at 10 μM
  Emax at 10 µM: < 20%
Human NPR-A; 30 min at 37 °C, cGMP ALPHAscreen, three separate experiments in triplicate, read-out: hNPR-A EC50 (95% CI), potency to stimulate cGMP production
  EC50: > 10 µM

## CC[C@H](C)[C@@H]1NC(=O)[C@H](CCCNC(=N)N)NC(=O)[C@H](CC(=O)O)NC(=O)[C@H](CCSC)NC(=O)[C@H](CCCNC(=N)N)NC(=O)CNC(=O)CNC(=O)[C@H](Cc2ccccc2)NC(=O)[C@@H](NC(=O)[C@H](CO)NC(=O)[C@H](CO)NC(=O)[C@H](CCCNC(=N)N)NC(=O)[C@H](CCCNC(=N)N)NC(=O)[C@H](CC(C)C)NC(=O)[C@@H](N)CO)CSSC[C@@H](C(=O)N[C@@H](CC(N)=O)C(=O)N[C@@H](CO)C(=O)N[C@@H](Cc2ccccc2)C(=O)N[C@@H](CCCNC(=N)N)C(=O)N[C@@H](Cc2ccc(O)cc2)C(=O)O)NC(=O)CNC(=O)[C@H](CC(C)C)NC(=O)CNC(=O)[C@H](CO)NC(=O)[C@H](CCC(N)=O)NC(=O)[C@H](C)NC(=O)CNC1=O [hANP, human atrial natriuretic peptide]
[1]
  half-life in plasma: 3 min

## CC[C@H](C)[C@@H]1NC(=O)[C@H](CCCNC(=N)N)NC(=O)[C@H](CC(=O)O)NC(=O)[C@H](CCSC)NC(=O)[C@H](CCCCN)NC(=O)[C@H](CCCNC(=N)N)NC(=O)CNC(=O)[C@H](Cc2ccccc2)NC(=O)[C@@H](NC(=O)CNC(=O)[C@H](CO)NC(=O)CNC(=O)[C@H](CCC(N)=O)NC(=O)[C@@H](NC(=O)[C@H](CCSC)NC(=O)[C@H](CCCCN)NC(=O)[C@@H]2CCCN2C(=O)[C@@H](N)CO)C(C)C)CSSC[C@@H](C(=O)N[C@@H](CCCCN)C(=O)N[C@H](C(=O)N[C@@H](CC(C)C)C(=O)N[C@@H](CCCN=C(N)N)C(=O)N[C@@H](CCCN=C(N)N)C(=O)N[C@@H](Cc2cnc[nH]2)C(=O)O)C(C)C)NC(=O)CNC(=O)[C@H](CC(C)C)NC(=O)CNC(=O)[C@H](CO)NC(=O)[C@H](CO)NC(=O)[C@H](CO)NC(=O)[C@H](CO)NC1=O [hBNP]
[1]
  half-life in plasma: 22 min

## SDSKIGNGCFGFPLDRIGSVSGLGCNRIMQNPPKKFSGE
[2]
  cleaved bond: Lys35-Phe36, major, after 24 h; also recorded: Cys9-Phe10, major, after 24 h; also recorded: Arg27-Ile28, major, after 24 h
